For test [1], the species on record is Homo sapiens. The test is described as follows: Selectivity ratio of Ki for recombinant human MAO-B to Ki for recombinant human MAO-A.
In test [2] the target is T1, Amine oxidase [copper-containing] 3 (Homo sapiens) (UniProt Q16853).
T1 sequence (whole entry): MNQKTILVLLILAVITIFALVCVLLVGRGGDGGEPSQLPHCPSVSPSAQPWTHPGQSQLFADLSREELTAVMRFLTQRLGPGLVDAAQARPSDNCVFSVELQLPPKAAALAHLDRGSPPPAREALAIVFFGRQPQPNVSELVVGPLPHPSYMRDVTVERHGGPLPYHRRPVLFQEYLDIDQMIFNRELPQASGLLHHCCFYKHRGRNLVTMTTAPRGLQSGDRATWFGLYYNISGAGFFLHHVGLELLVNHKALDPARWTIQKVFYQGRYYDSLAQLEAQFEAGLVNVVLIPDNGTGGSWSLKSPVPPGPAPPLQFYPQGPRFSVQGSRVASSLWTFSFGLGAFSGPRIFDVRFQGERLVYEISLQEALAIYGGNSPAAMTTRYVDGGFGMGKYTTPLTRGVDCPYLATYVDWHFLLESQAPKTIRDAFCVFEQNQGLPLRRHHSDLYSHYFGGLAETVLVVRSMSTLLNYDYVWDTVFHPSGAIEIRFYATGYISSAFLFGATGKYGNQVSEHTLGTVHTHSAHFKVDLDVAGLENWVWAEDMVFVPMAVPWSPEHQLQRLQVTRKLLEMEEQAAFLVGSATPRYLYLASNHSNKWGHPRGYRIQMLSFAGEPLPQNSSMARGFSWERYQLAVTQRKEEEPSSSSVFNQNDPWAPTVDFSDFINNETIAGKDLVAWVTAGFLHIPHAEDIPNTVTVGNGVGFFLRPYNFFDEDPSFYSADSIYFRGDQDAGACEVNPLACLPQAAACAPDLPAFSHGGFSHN
The test is described as follows: Ratio of relative Vmax to Km for recombinant human VAP-1 assessed as hydrogen peroxide generation rate using benzylamine as substrate at 200 uM preincubated for 30 mins by Amplex Red assay.

Test [3] addresses T1, Amine oxidase [copper-containing] 3 (Homo sapiens). The test is described as follows: Activity at recombinant human VAP-1 assessed as hydrogen peroxide generation rate per min/mg using benzylamine as substrate at 200 uM preincubated for 30 mins by Amplex Red assay relative to control.
The target is the same in test [4]. The test is described as follows: Activity at recombinant human VAP-1 assessed as hydrogen peroxide generation rate preincubated for 30 mins by Amplex Red assay.
For test [5] the target is unchanged. The test is described as follows: Ratio of relative Vmax to Km for recombinant human VAP-1 assessed as hydrogen peroxide generation rate preincubated for 30 mins by Amplex Red assay relative to control.
The target is the same in test [6]. The test is described as follows: Activity at recombinant human VAP-1 assessed as hydrogen peroxide generation rate per min/mg preincubated for 30 mins by Amplex Red assay relative to control.
Test [7] is filed under the species Homo sapiens. The test is described as follows: Selectivity ratio of Ki for recombinant human MAO-A to Ki for recombinant human MAO-B.

Calls of active or inactive are those of the source. The calls are words filed in the database; no cut-off is given here.

On to `CN(CCCCCCCCCCCCN=C=S)Cc1ccccc1`, for which the Ratio Ki in the test filed under Homo sapiens [1] came to 1.8. The results for the fold change (FC) in test [2] and in test [3] were 0.66 and 0.69, respectively.

Take `NCCCNCCCCNCCCNCc1cccnc1`: the fold change (FC) was found to be 0.69 in test [2] and 0.85 in test [3]. Moreover, the outcome in test [4] was inactive.

As to `NCCCNCCCCNCCCN`, the fold change (FC) in test [2] was found to be 0.96; in test [3], 1.

As to `CN(CCCCCCCCCCCCN)Cc1ccccc1`, the fold change (FC) in test [5] was 30; in test [6], 0.73.

On to `NCCCNCCCCNCCCNCc1cccs1`, for which the Ratio Ki in the test filed under Homo sapiens [7] came to 9.8. Further, the fold change (FC) in test [2] was 0.6; in test [3], 1. Moreover, the outcome in test [4] was inactive.

Consider `c1ccc(CNCCCCCCCCCCCCNCc2ccccc2)cc1`, for which the fold change (FC) in test [2] was 0.35; in test [3], 0.89.

For `NCCCCCCCCNCCCNCc1cccs1`, the values for the fold change (FC) in test [5] and in test [6] were 0.09 and 0.38, respectively.

As to `NCCCNCCCCNCCCNCc1ccccc1`, the Ratio Ki in the test listed under Homo sapiens [1] came to 1.7. Further, the fold change (FC) in test [2] came out at 0.66; in test [3], 0.77.

As for `NCCCOCCCCOCCCNCc1cccs1`, the fold change (FC) in test [5] was 0.87; in test [6], 0.71.

Consider `NCCCCCCCCCCCCNCc1cccs1`, for which the figures for the fold change (FC) in test [5] and in test [6] were 35 and 1.77, respectively.

`NCCCCCCCCCCCCNCc1ccccc1`: the fold change (FC) in test [5] was 80; in test [6], 1.88.

Turning to `NCCCNCCCCNCCCNCc1ccc2ccccc2c1`, the fold change (FC) stood at 0.97 in test [2] and 1.12 in test [3]. Moreover, the outcome in test [4] was inactive.

The values are drawn from ChEMBL document CHEMBL3085760, “Novel polyamine analogues: from substrates towards potential inhibitors of monoamine oxidases” (Eur J Med Chem, 2013).
